Data on one compound can be found in patent US4965066A, “Intranasal administration of 3,3-disubstituted indolines” (E. I. Du Pont de Nemours and Company, priority 1989, dated 1990).

A short description of this data set: in vivo. To be noted: rat. On the procedure: Male Lewis rats weighing approximately 300 g were used. […] This dose was administered by gavage. The nasal dose of (1') was administered to rats after surgical isolation of the nasal cavity. The trachea was cannulated to allow free breathing, and a closed tube was inserted anteriorly through the esophagus to block the posterior part of the nasal cavity. The incisive ducts were closed with an adhesive to prevent drainage into the mouth. The dose was administered through the nares with a microliter syringe via polyethylene tubing. […] Serial blood samples (~0.5 ml) were collected into heparinized test tubes after cutting the tip of the tail. […] Aliquots of the acid were injected onto the HPLC. […] Du Pont) attached to a guard column packed with cyano packing. A liter of mobile phase contained […] of 0.1 M acetate buffer at pH 3.5, 480 ml acetontrile, 5 ml tetrahydrofuran, and 0.75 g sodium heptanesulfonate. […] Detection was by ultraviolet (uv) absorbance at 252 nm. The detection limit was 0.12 μg/ml plasma. […] Systemic bioavailability after oral and nasal doses was calculated for each rat as the ratio of AUC^oral or ^nasal /AUC^iv, using the average AUC^iv and correcting for the differences in dose. Values are expressed as percentage (%) of dose.

The Tmax is the time at which the peak concentration occurs. The term AUC denotes the area under the concentration-time curve, a measure of exposure. A high value points to high exposure. One may read the bioavailability as the share of a dose that reaches the circulation, judged against a reference dose that is usually intravenous. A low value points to little systemic uptake. With `O=C1N(c2ccccc2)c2ccccc2C1(Cc1ccncc1)Cc1ccncc1` [1'], the Tmax (1 mg/kg) was no more than 10 min. For the same compound, the “Bioavailability (F)” value (2 mg/kg) is recorded as 100 % of Dose. This compound also registered an AUC at 3 h (4 mg/kg) of 1340 ± 140 ng·h/mL; an AUC at 3 h (iv, 2 mg/kg) of 1260 ± 90 ng·h/mL; an AUC at 3 h (po, 20 mg/kg) of 1150 ± 240 ng·h/mL. This compound came in with a bioavailability (4 mg/kg, Nasal Bioavailability (F)) of 53 ± 5.5% and a bioavailability (po, 20 mg/kg, Oral Bioavailability (F)) of 9.1 ± 1.9%.
